Experimental data as given in the supplement of paper PMC4862054.
Several values for one entry are separate records, joined by “and”; a condition that tells them apart may be missing. Identical values can stand only once.

What was measured:
BT-549 [1] = assay: normalised viability (% of control), CellTiter-Blue; higher = more viable cells (about 100 = DMSO control); settings: 100 nM; incubation time: 72 h
Description: (§1)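 DSRT, CellTiter-Blue viability, 72 h incubation. Signal is normalised to DMSO and benzethonium chloride controls. Value is the normalised response at dose 3.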

MFM-223 [2] = assay: as above; settings: incubation time: 72 h
Description: as §1

MDA-MB-468 [3] = assay: as above; settings: incubation time: 72 h
Description: as §1

MDA-MB-231 [4] = assay: drug sensitivity score (DSS), CellTiter-Blue viability (DSS (AUC-based score)); higher = stronger viability inhibition; extreme values may be limits of the assay; settings: incubation time: 72 h
Description: (§2)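 DSRT with the CellTiter-Blue (resazurin reduction) viability readout, fluorescence 560/590 nm, 72 h incubation. Plates were normalised to DMSO and benzethonium chloride controls. DSS is computed from the area under the fitted dose-response curve (5 or 9 concentrations).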

MFM-223 [5] = assay: as above; settings: incubation time: 72 h
Description: as §2

BT-549 [6] = assay: normalised viability (% of control), CellTiter-Blue; higher = more viable cells (about 100 = DMSO control); settings: incubation time: 72 h
Method in brief: (§3)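 Each value is normalised viability at a single listed concentration of the series. Breast cancer cell lines in 384-well plates were incubated 72 h with compound and read by CellTiter-Blue fluorescence at 560/590 nm, with vehicle set to 100 and a positive kill control to 0 on every plate.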

MDA-MB-231 [7] = assay: as above; settings: incubation time: 72 h
Method in brief: as §3

Hs578T = assay: as above; settings: incubation time: 72 h
Method in brief: as §3

HCC1937 = assay: as above; settings: incubation time: 72 h
Method in brief: as §3

HDQ-P1 = assay: as above; settings: incubation time: 72 h
Method in brief: as §3

SK-BR-3 = assay: as above; settings: incubation time: 72 h
Method in brief: as §3

CAL-148 = assay: as above; settings: incubation time: 72 h
Method in brief: as §3

MDA-MB-436 = assay: as above; settings: incubation time: 72 h
Method in brief: as §3

MFM-223 [8] = assay: as above; settings: incubation time: 72 h; remark: listed apart in the source
Method in brief: as §3

CAL-120 = assay: as above; settings: incubation time: 72 h
Method in brief: as §3

BT-474 = assay: as above; settings: incubation time: 72 h
Method in brief: as §3

MDA-MB-453 = assay: as above; settings: incubation time: 72 h
Method in brief: as §3

HCC1143 = assay: as above; settings: incubation time: 72 h
Method in brief: as §3

MDA-MB-468 [9] = assay: as above; settings: incubation time: 72 h; remark: listed apart in the source
Method in brief: as §3

HCC1599 = assay: as above; settings: incubation time: 72 h
Method in brief: as §3

CAL-51 = assay: as above; settings: incubation time: 72 h
Method in brief: as §3

DU-4475 = assay: as above; settings: incubation time: 72 h
Method in brief: as §3

CAL-85-1 = assay: as above; settings: incubation time: 72 h
Method in brief: as §3

Cc1c(CN2CCN(C(=O)[C@H](C)O)CC2)sc2c(N3CCOCC3)nc(-c3cnc(N)nc3)nc12 [GDC-0980]
Settings | drug sensitivity score | normalised viability [%]
BT-549 [1] | – | 81.9
MDA-MB-231 [4] | 18.5 | –
MFM-223 [5] | 19.2 | –

Settings | normalised viability [%]
BT-474, 10 nM | 115
BT-474, 1000 nM | 22.1
BT-474, 10000 nM | 12.3
BT-549 [6], 10 nM | 88.7
BT-549 [6], 1000 nM | 33.3
BT-549 [6], 10000 nM | 13.6
CAL-51, 3 nM | 112
CAL-51, 30 nM | 98.5
CAL-51, 100 nM | 71.9
CAL-85-1, 3 nM | 102
CAL-85-1, 30 nM | 83.3
CAL-85-1, 100 nM | 89.2
CAL-120, 10 nM | 103
CAL-120, 1000 nM | 24.1
CAL-120, 10000 nM | 13.7
CAL-148, 3 nM | 100
CAL-148, 30 nM | 94.5
CAL-148, 100 nM | 87.6
DU-4475, 3 nM | 102
DU-4475, 30 nM | 82.1
DU-4475, 100 nM | 83.5
HCC1143, 10 nM | 88.7
HCC1143, 1000 nM | 33.8
HCC1143, 10000 nM | 15.6
HCC1599, 10 nM | 95
HCC1599, 1000 nM | 39.7
HCC1599, 10000 nM | 35.3
HCC1937, 10 nM | 113
HCC1937, 1000 nM | 39.7
HCC1937, 10000 nM | 26.2
HDQ-P1, 3 nM | 91.9
HDQ-P1, 30 nM | 84.3
HDQ-P1, 100 nM | 70.8
Hs578T, 10 nM | 121
Hs578T, 1000 nM | 28.9
Hs578T, 10000 nM | 17.1
MDA-MB-231 [7], 10 nM | 95.6
MDA-MB-231 [7], 1000 nM | 27.6
MDA-MB-231 [7], 10000 nM | 23.6
MDA-MB-436, 10 nM | 81.2
MDA-MB-436, 1000 nM | 44.7
MDA-MB-436, 10000 nM | 18.2
MDA-MB-453, 3 nM | 116
MDA-MB-453, 30 nM | 77.8
MDA-MB-453, 100 nM | 56.1
MDA-MB-468 [3], 100 nM | 85.3
MDA-MB-468 [9], 10 nM | 105
MDA-MB-468 [9], 1000 nM | 44.4
MDA-MB-468 [9], 10000 nM | 10.7
MFM-223 [2], 100 nM | 65.4
MFM-223 [8], 10 nM | 86.1
MFM-223 [8], 1000 nM | 18.1
MFM-223 [8], 10000 nM | 14.2
SK-BR-3, 10 nM | 102
SK-BR-3, 1000 nM | 15.9
SK-BR-3, 10000 nM | 9.04

CNC(=O)c1cc(Oc2ccc(NC(=O)Nc3ccc(Cl)c(C(F)(F)F)c3)cc2)ccn1 [Sorafenib]
Settings | normalised viability
BT-474, 1000 nM | 130% and 106%
BT-549 [6], 1 nM | 83.7% and 97.1%
BT-549 [6], 100 nM | 99.5% and 82.8%
BT-549 [6], 1000 nM | 94.5% and 80.4%
CAL-51, 0.3 nM | 112% and 107%
CAL-51, 3 nM | 108% and 99.3%
CAL-51, 10 nM | 98.3% and 96.8%
CAL-85-1, 0.3 nM | 98.3% and 99.7%
CAL-85-1, 3 nM | 104% and 98.8%
CAL-85-1, 10 nM | 105% and 108%
CAL-120, 1 nM | 106% and 91.3%
CAL-120, 100 nM | 101% and 90.5%
CAL-120, 1000 nM | 96.5% and 89%
CAL-148, 0.3 nM | 101% and 88%
CAL-148, 3 nM | 99.3% and 91.5%
CAL-148, 10 nM | 102% and 87.5%
DU-4475, 0.3 nM | 94.3% and 109%
DU-4475, 3 nM | 101% and 95.7%
HCC1143, 1 nM | 99% and 84.3%
HCC1143, 100 nM | 105% and 85.9%
HCC1143, 1000 nM | 96.1% and 91.6%
HCC1599, 100 nM | 115% and 126%
HCC1599, 1000 nM | 100% and 112%
HCC1937, 100 nM | 106% and 100%
HCC1937, 1000 nM | 82.3% and 82.8%
HDQ-P1, 0.3 nM | 107% and 97.1%
HDQ-P1, 3 nM | 98.5% and 88.8%
Hs578T, 1 nM | 126% and 102%
Hs578T, 100 nM | 109% and 123%
Hs578T, 1000 nM | 101% and 87.8%
MDA-MB-231 [7], 1 nM | 103% and 90.2%
MDA-MB-231 [7], 100 nM | 88.7% and 96.2%
MDA-MB-231 [7], 1000 nM | 84.8% and 63.9%
MDA-MB-436, 1 nM | 92.8% and 87%
MDA-MB-436, 100 nM | 103% and 80.7%
MDA-MB-436, 1000 nM | 91% and 88.2%
MDA-MB-453, 0.3 nM | 122% and 105%
MDA-MB-453, 3 nM | 97.2% and 99.1%
MDA-MB-453, 10 nM | 96.8% and 102%
MDA-MB-468 [3], 10 nM | 114% and 97.8%
MDA-MB-468 [9], 1 nM | 115% and 93.2%
MDA-MB-468 [9], 1000 nM | 102% and 112%
MFM-223 [2], 10 nM | 94.7% and 95%
MFM-223 [8], 1 nM | 94.9% and 108%
MFM-223 [8], 100 nM | 96.7% and 103%
MFM-223 [8], 1000 nM | 48.2% and 67.9%
SK-BR-3, 1 nM | 112% and 89.3%
SK-BR-3, 100 nM | 107% and 102%
SK-BR-3, 1000 nM | 110% and 108%

Settings | drug sensitivity score
MDA-MB-231 [4] | 0
